Experimental data reported in paper PMC7318538, “Bergenia pacumbis from Nepal, an astonishing enzymes inhibitor” (BMC Complementary Medicine and Therapies, 2020).
Converted amounts (≈) assume the structure as drawn.

How the values were obtained:
[1] = ABTS radical scavenging assay; conditions: 10 min in the dark, absorbance 720 nm; mean ± SD, triplicates
Protocol: In-vitro 2, 2′-azino-bis (3-ethylbenzothiazoline-6-sulphonic acid) (ABTS) scavenging assay was performed as by Liyanaarachchi et al.. An aliquot of 1 mL of plant extract of varying concentrations was mixed with 3 mL of ABTS working solution and incubated for 10 min in the dark and the decrease in absorbance was recorded at λ = 720 nm in a UV-visible spectrophotometer. Gallic acid and 50% methanol were used as reference and positive control respectively.

[2] = DPPH radical scavenging assay; conditions: 30 min in the dark, absorbance 517 nm; mean ± SD, triplicates
Protocol: In-vitro antioxidant potential of the different extracts of B. pacumbis was assessed by 1,1-diphenyl 1–2-picryl-hydrazyl (DPPH) assay accordingly with Jha et al.. One milliliter of plant extract of different concentrations was added in 3 mL of the DPPH solution ([…]) and incubated for 30 min in the dark. Absorbance was measured at the wavelength (λ) = 517 nm in a UV-visible spectrophotometer (UV-1800, SHIMADZU). Gallic acid and methanolic DPPH were used as reference and positive control respectively.

O=C(O)c1cc(O)c(O)c(O)c1 [Gallic Acid]
IC50 Value ABTS [1]: 1.96 ± 0.05 µg/mL (≈ 11.5 µM) | IC50 Value DPPH [2]: 5.12 ± 0.12 µg/mL (≈ 30.1 µM)
